Measured values taken from patent publication US20250313546A1, “NUCLEIC ACID BINDERS” (UNIVERSITY OF STRATHCLYDE, priority 2022, published 2025).
Values after ≈ are worked out from the molar mass of the structure shown.

Assays:
[1] = tested on: C. neoformans (F10025); conditions: Cryptococcus neoformans, read-out: MIC99 C. neoformans
[2] = tested on: PolyAU double stranded RNA; test: Fluorescence intercalator displacement (FID) assay, SYBR-safe probe; conditions: 20 μM compound, 30° C., lower % = stronger binding
Outline: (§1)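 Probe displacement was measured at 30 °C in 1 mM phosphate pH 7.4 containing SybrSafe (12500-fold dilution), 3.76 ng/mL nucleic acid (salmon dsDNA or polyAU dsRNA) and 20 μM compound. Fluorescence loss is normalised between probe-only and probe-plus-nucleic-acid controls.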

[3] = tested on: Genomic double stranded DNA (salmon); test: as above; conditions: 20 μM compound, 30° C., lower % = stronger binding
Outline: as §1

[4] = tested on: Enterococcus faecalis (ATCC 51299); test: Antibacterial MIC, broth microdilution (CLSI); format: cell-based; conditions: for MIC80: Enterococcus faecalis, ATCC51299, read-out: MIC80 E. faecalis; for E. faecalis Selectivity Indices, Group: SI, IC50 (μM)/MIC80 (μM), HEK293 cytotoxicity, Alkyl Amidines and NH Pyrroles
[5] = tested on: Candida glabrata (ACPF3309); conditions: Nakaseomyces glabratus, read-out: MIC99 Candida glabrata
[6] = tested on: T. vaginalis; test: Trichomonas resorufin assay; format: cell-based; conditions: for IC50: Trichomonas vaginalis, read-out: IC50 T. vaginalis
[7] = tested on: A. fumigatus A1160 (MFIG001); conditions: Aspergillus fumigatus, read-out: MIC99 A. fumigatus A1160
[8] = tested on: Escherichia coli (ATCC 25922); test: Antibacterial MIC, broth microdilution (CLSI); format: cell-based; conditions: Escherichia coli, ATCC25922; read-out: MIC80 E. coli
[9] = tested on: Staphylococcus aureus (ATCC 43300); test: Antibacterial MIC, broth microdilution (CLSI); format: cell-based; conditions: for MIC80: Staphylococcus aureus, ATCC43300, read-out: MIC80 S. aureus; for S. aureus Selectivity Indices, Group: Alkyl Amidines and NH Pyrroles
[10] = tested on: Rhizopus arrhizus (NEQAS12.35321); conditions: read-out: MIC99 Rhizopus arrhizus
[11] = SI, IC50 (μM)/MIC80 (μM), HEK293 cytotoxicity

CCCCCCC/N=C(\CCNC(=O)c1cc(NC(=O)c2cc(NC(=O)c3ccc(/C=C/c4ccc(N(C)C)cc4)nc3)cn2C)cn1C)NCCCCCCC [Ia33, 6-((E)-4-(dimethylamino)styryl)-N-(5-((5-(((E)-3-(heptylamino)-3-(heptylimino)propyl)carbamoyl)-1-methyl-1H-pyrrol-3-yl)carbamoyl)-1-methyl-1H-pyrrol-3-yl)nicotinamide]
MIC99 [1]: 25 to 50 µg/mL (≈ 32.1 to 64.3 µM)
% Normalised Fluorescence with polyAU RNA [2]: 24%
% Normalised Fluorescence with gDNA [3]: 49%
MIC80 [4]: 25 to 100 µM (≈ 19.5 to 77.8 µg/mL)
MIC99 [5]: > 50 µg/mL
IC50 [6]: 5 to 50 µM
MIC99 [7]: > 50 µg/mL
MIC80 [8]: > 100 µM
MIC80 [9]: 5 to 25 µM (≈ 3.89 to 19.5 µg/mL)

CN1CCN(C(=N)CCNC(=O)c2cc(NC(=O)c3cc(NC(=O)c4ccc(/C=C/c5cnc6ccccc6c5)cc4)cn3C)cn2C)CC1 [Ib3, (E)-N-(3-imino-3-(4-methylpiperazin-1-yl)propyl)-1-methyl-4-(1-methyl-4-(4-(2-(quinolin-3-yl)vinyl)benzamido)-1H-pyrrole-2-carboxamido)-1H-pyrrole-2-carboxamide]
MIC99 [1]: 5 to 25 µg/mL (≈ 7.44 to 37.2 µM)
% Normalised Fluorescence with polyAU RNA [2]: 5%
% Normalised Fluorescence with gDNA [3]: 13%
MIC80 [4]: 5 to 25 µM (≈ 3.36 to 16.8 µg/mL)
MIC99 [5]: 5 to 25 µg/mL (≈ 7.44 to 37.2 µM)
IC50 [6]: 5 to 50 µM
MIC99 [7]: > 50 µg/mL
MIC80 [8]: > 100 µM
S. aureus Selectivity Indices, Group [9, 11]: B (Group B: 3 < SI <= 5)
MIC80 [9]: < 5 µM

Cn1cc(NC(=O)c2cc(NC(=O)c3ccc(/C=C/c4cnc5ccccc5c4)cc3)cn2C)cc1C(=O)NCCC(=N)N1CCOCC1 [Ib5, (E)-N-(3-imino-3-morpholinopropyl)-1-methyl-4-(1-methyl-4-(4-(2-(quinolin-3-yl)vinyl)benzamido)-1H-pyrrole-2-carboxamido)-1H-pyrrole-2-carboxamide]
MIC99 [1]: 5 to 25 µg/mL (≈ 7.59 to 37.9 µM)
% Normalised Fluorescence with polyAU RNA [2]: 13%
% Normalised Fluorescence with gDNA [3]: 22%
MIC80 [4]: < 5 µM
E. faecalis Selectivity Indices, Group [4]: C (Group C: 5 < SI <= 10)
MIC99 [5]: < 5 µg/mL
T. vaginalis Selectivity Indices, Group ([6]; SI, IC50 (μM)/IC50 (μM), HEK293 cytotoxicity, Alkyl Amidines and NH Pyrroles): C (Group C: 16 < SI <= 32)
IC50 [6]: 1 to 5 µM
MIC99 [7]: 5 to 25 µg/mL (≈ 7.59 to 37.9 µM)
MIC99 [10]: 25 to 50 µg/mL (≈ 37.9 to 75.9 µM)
MIC80 [8]: > 100 µM
S. aureus Selectivity Indices, Group [9, 11]: D (D: SI > 10)
S. aureus Selectivity Index (SI) ([9]; SI, IC50 (μM)/MIC80 (μM), HEK293 cytotoxicity, numeric value): 27
MIC80 [9]: < 5 µM

CCNC(=N)CCNC(=O)c1cc(NC(=O)c2cc(NC(=O)c3ccc(/C=C/c4cccc(OC)c4)cc3)cn2C)cn1C [Ia22, (E)-N-(3-(ethylamino)-3-iminopropyl)-4-(4-(4-(3-methoxystyryl)benzamido)-1-methyl-1H-pyrrole-2-carboxamido)-1-methyl-1H-pyrrole-2-carboxamide]
MIC99 [1]: 25 to 50 µg/mL (≈ 42 to 83.9 µM)
% Normalised Fluorescence with polyAU RNA [2]: 5%
% Normalised Fluorescence with gDNA [3]: 3%
MIC80 [4]: < 5 µM
E. faecalis Selectivity Indices, Group [4]: C (Group C: 5 < SI <= 10)
MIC99 [5]: 5 to 25 µg/mL (≈ 8.39 to 42 µM)
IC50 [6]: 1 to 5 µM
MIC99 [7]: > 50 µg/mL
MIC80 [8]: > 100 µM
MIC80 [9]: 5 to 25 µM (≈ 2.98 to 14.9 µg/mL)

CCCCCCCCCNC(=N)CCNC(=O)c1cc(NC(=O)c2cc(NC(=O)c3ccc(/C=C/c4cnc5ccccc5c4)cc3)cn2C)cn1C [Ia36, (E)-N-(3-imino-3-(nonylamino)propyl)-1-methyl-4-(1-methyl-4-(4-(2-(quinolin-3-yl)vinyl)benzamido)-1H-pyrrole-2-carboxamido)-1H-pyrrole-2-carboxamide]
MIC99 [1]: > 50 µg/mL
% Normalised Fluorescence with polyAU RNA [2]: 4%
% Normalised Fluorescence with gDNA [3]: 11%
MIC80 [4]: 25 to 100 µM (≈ 17.9 to 71.5 µg/mL)
MIC99 [5]: 25 to 50 µg/mL (≈ 35 to 69.9 µM)
IC50 [6]: 5 to 50 µM
MIC99 [7]: > 50 µg/mL
MIC80 [8]: > 100 µM
MIC80 [9]: 5 to 25 µM (≈ 3.57 to 17.9 µg/mL)

CN(C)CCCN(CCCN(C)C)C(=O)c1cc(NC(=O)c2cc(NC(=O)c3ccc(/C=C/c4cnc5ccccc5c4)cc3)cn2C)cn1C [IVa9, (E)-N,N-bis(3-(dimethylamino)propyl)-1-methyl-4-(1-methyl-4-(4-(2-(quinolin-3-yl)vinyl)benzamido)-1H-pyrrole-2-carboxamido)-1H-pyrrole-2-carboxamide]
MIC99 [1]: 25 to 50 µg/mL (≈ 36.3 to 72.6 µM)
% Normalised Fluorescence with polyAU RNA [2]: 4%
% Normalised Fluorescence with gDNA [3]: 3%
MIC80 [4]: > 100 µM
MIC99 [5]: 25 to 50 µg/mL (≈ 36.3 to 72.6 µM)
MIC99 [7]: > 50 µg/mL
MIC80 [8]: > 100 µM
MIC80 [9]: 25 to 100 µM (≈ 17.2 to 68.9 µg/mL)

CCCC/N=C(\CCNC(=O)c1cc(NC(=O)c2cc(NC(=O)c3ccc(/C=C/c4ccc(N(C)C)cc4)nc3)cn2C)cn1C)NCCCC [Ia39, N-(5-((5-(((E)-3-(butylamino)-3-(butylimino)propyl)carbamoyl)-1-methyl-1H-pyrrol-3-yl)carbamoyl)-1-methyl-1H-pyrrol-3-yl)-6-((E)-4-(dimethylamino)styryl)nicotinamide]
MIC99 [1]: 25 to 50 µg/mL (≈ 36 to 72.1 µM)
% Normalised Fluorescence with polyAU RNA [2]: 43%
% Normalised Fluorescence with gDNA [3]: 50%
MIC80 [4]: 25 to 100 µM (≈ 17.3 to 69.4 µg/mL)
MIC99 [5]: 25 to 50 µg/mL (≈ 36 to 72.1 µM)
IC50 [6]: 5 to 50 µM
MIC99 [7]: > 50 µg/mL
MIC80 [8]: > 100 µM
MIC80 [9]: < 5 µM

[H]/N=C(\CCNC(=O)c1cc(NC(=O)c2cc(NC(=O)c3ccc(C=Cc4ccc5nonc5c4)cc3)cn2C)cn1C)N1CCOCC1 [Ib6, (E)-4-(4-(2-(benzo[c][1,2,5]oxadiazol-5-yl)vinyl)benzamido)-N-(5-((3-imino-3-morpholinopropyl)carbamoyl)-1-methyl-1H-pyrrol-3-yl)-1-methyl-1H-pyrrole-2-carboxamide]
MIC99 [1]: 25 to 50 µg/mL (≈ 38.5 to 77 µM)
% Normalised Fluorescence with polyAU RNA [2]: 49%
% Normalised Fluorescence with gDNA [3]: 11%
MIC80 [4]: 25 to 100 µM (≈ 16.2 to 65 µg/mL)
MIC99 [5]: 25 to 50 µg/mL (≈ 38.5 to 77 µM)
IC50 [6]: > 50 µM
MIC99 [10]: 5 to 25 µg/mL (≈ 7.7 to 38.5 µM)
MIC80 [8]: > 100 µM
MIC80 [9]: 5 to 25 µM (≈ 3.25 to 16.2 µg/mL)

CCCCCCC/N=C(/CCNC(=O)c1cc(NC(=O)c2cc(NC(=O)c3ccc(/C=C/c4cnc5ccccc5c4)cc3)cn2C)cn1C)NCCCCCCC [Ia37, N—((Z)-3-(heptylamino)-3-(heptylimino)propyl)-1-methyl-4-(1-methyl-4-(4-((E)-2-(quinolin-3-yl)vinyl)benzamido)-1H-pyrrole-2-carboxamido)-1H-pyrrole-2-carboxamide]
MIC99 [1]: 25 to 50 µg/mL (≈ 31.8 to 63.7 µM)
% Normalised Fluorescence with polyAU RNA [2]: 68%
% Normalised Fluorescence with gDNA [3]: 16%
MIC80 [4]: 25 to 100 µM (≈ 19.6 to 78.5 µg/mL)
MIC99 [5]: > 50 µg/mL
IC50 [6]: 5 to 50 µM
MIC99 [7]: > 50 µg/mL
MIC80 [8]: > 100 µM
MIC80 [9]: 5 to 25 µM (≈ 3.93 to 19.6 µg/mL)

[H]/N=C(\CCNC(=O)c1cc(NC(=O)c2cc(NC(=O)c3ccc(C=Cc4ccc5nonc5c4)cc3)cn2C)cn1C)NCCC1CCOCC1 [Ia45, (E)-4-(4-(2-(benzo[c][1,2,5]oxadiazol-5-yl)vinyl)benzamido)-N-(5-((3-imino-3-((2-(tetrahydro-2H-pyran-4-yl)ethyl)amino)propyl)carbamoyl)-1-methyl-1H-pyrrol-3-yl)-1-methyl-1H-pyrrole-2-carboxamide]
MIC99 [1]: 5 to 25 µg/mL (≈ 7.23 to 36.1 µM)
% Normalised Fluorescence with polyAU RNA [2]: 3%
% Normalised Fluorescence with gDNA [3]: 9%
MIC80 [4]: > 100 µM
MIC99 [5]: 25 to 50 µg/mL (≈ 36.1 to 72.3 µM)
IC50 [6]: 5 to 50 µM
MIC99 [7]: > 50 µg/mL
MIC80 [8]: > 100 µM
S. aureus Selectivity Indices, Group [9, 11]: B (Group B: 3 < SI <= 5)
MIC80 [9]: 5 to 25 µM (≈ 3.46 to 17.3 µg/mL)

Cn1cc(NC(=O)c2cc(NC(=O)c3ccc(/C=C/c4cnc5ccccc5c4)cc3)cn2C)cc1C(=O)NCCC(=N)NCCC1CCOCC1 [Ia44, (E)-N-(3-imino-3-((2-(tetrahydro-2H-pyran-4-yl)ethyl)amino)propyl)-1-methyl-4-(1-methyl-4-(4-(2-(quinolin-3-yl)vinyl)benzamido)-1H-pyrrole-2-carboxamido)-1H-pyrrole-2-carboxamide]
MIC99 [1]: 25 to 50 µg/mL (≈ 35.7 to 71.3 µM)
% Normalised Fluorescence with polyAU RNA [2]: 19%
% Normalised Fluorescence with gDNA [3]: 16%
MIC80 [4]: 5 to 25 µM (≈ 3.5 to 17.5 µg/mL)
MIC99 [5]: 5 to 25 µg/mL (≈ 7.13 to 35.7 µM)
IC50 [6]: 5 to 50 µM
MIC99 [7]: > 50 µg/mL
MIC80 [8]: > 100 µM
MIC80 [9]: 5 to 25 µM (≈ 3.5 to 17.5 µg/mL)

CCCC/N=C(\CCNC(=O)c1cc(NC(=O)c2cc(NC(=O)c3ccc(/C=C/c4cnc5ccccc5c4)cc3)cn2C)cn1C)NCCCC [Ia38, N—((E)-3-(butylamino)-3-(butylimino)propyl)-1-methyl-4-(1-methyl-4-(4-((E)-2-(quinolin-3-yl)vinyl)benzamido)-1H-pyrrole-2-carboxamido)-1H-pyrrole-2-carboxamide]
MIC99 [1]: 25 to 50 µg/mL (≈ 35.7 to 71.3 µM)
% Normalised Fluorescence with polyAU RNA [2]: 4%
% Normalised Fluorescence with gDNA [3]: 10%
MIC80 [4]: 25 to 100 µM (≈ 17.5 to 70.1 µg/mL)
MIC99 [5]: 5 to 25 µg/mL (≈ 7.13 to 35.7 µM)
IC50 [6]: 5 to 50 µM
MIC99 [7]: > 50 µg/mL
MIC80 [8]: > 100 µM
MIC80 [9]: < 5 µM
